According to the NIST ThermoML archive (doi:10.1021/je049801y):
Numbers after ± are expanded uncertainties.

Conditions: Crystal

Row | Normal melting temperature [°C] | SMILES
1 | 122.4 ± 1 | O=C(O)c1ccccc1 [benzoic acid]
2 | 348.1 ± 1 | O=C(O)c1cccc(C(=O)O)c1 [1,3-benzenedicarboxylic acid]
3 | 182.0 ± 1 | Cc1ccc(C(=O)O)cc1 [4-methylbenzoic acid]
4 | 430.0 ± 1 | O=C(O)c1ccc(C(=O)O)cc1 [1,4-benzenedicarboxylic acid]
